# Counter-ions that a name gives are not always drawn.
# Assays:
# Type in all cases: functional
# Aspergillus niger = assay: Antifungal activity against Aspergillus niger by broth micro-dilution method
# HeLa = assay: Cytotoxicity against human HeLa cells; details: for CC50: read-out: LC50 (the source's name)
# Streptococcus pyogenes = assay: Antibacterial activity against Streptococcus pyogenes by broth micro-dilution method
# Escherichia coli = assay: Antibacterial activity against Escherichia coli by broth micro-dilution method
# Aspergillus clavatus = assay: Antifungal activity against Aspergillus clavatus by broth micro-dilution method
# Staphylococcus aureus = assay: Antibacterial activity against Staphylococcus aureus by broth micro-dilution method
# Pseudomonas aeruginosa = assay: Antibacterial activity against Pseudomonas aeruginosa by broth micro-dilution method
# Candida albicans = assay: Antifungal activity against Candida albicans by broth micro-dilution method
Compound,MIC (Aspergillus niger),GI50 (HeLa),TGI (HeLa),CC50 (HeLa),MIC (Streptococcus pyogenes),MIC (Escherichia coli),MIC (Aspergillus clavatus),MIC (Staphylococcus aureus),MIC (Pseudomonas aeruginosa),MIC (Candida albicans)
O=C(COc1cc2cc(c1)Oc1cc(c([N+](=O)[O-])cc1[N+](=O)[O-])Oc1cc(OCC(=O)Nc3cccc4cccnc34)cc(c1)Oc1cc(c([N+](=O)[O-])cc1[N+](=O)[O-])O2)Nc1cccc2cccnc12,50 µg/mL,28.8 µM,59.2 µM,> 100 µM,50 µg/mL,50 µg/mL,50 µg/mL,50 µg/mL,3.12 µg/mL,50 µg/mL
COc1ccc2nc(NC(=O)COc3cc4cc(c3)Oc3cc(c([N+](=O)[O-])cc3[N+](=O)[O-])Oc3cc(OCC(=O)Nc5nc6ccc(OC)cc6s5)cc(c3)Oc3cc(c([N+](=O)[O-])cc3[N+](=O)[O-])O4)sc2c1,25 µg/mL,20.1 µM,39.4 µM,> 100 µM,3.12 µg/mL,50 µg/mL,12.5 µg/mL,12.5 µg/mL,25 µg/mL,50 µg/mL
Cc1cccc2sc(NC(=O)COc3cc4cc(c3)Oc3cc(c([N+](=O)[O-])cc3[N+](=O)[O-])Oc3cc(OCC(=O)Nc5nc6c(C)cccc6s5)cc(c3)Oc3cc(c([N+](=O)[O-])cc3[N+](=O)[O-])O4)nc12,25 µg/mL,7.7 µM,13.4 µM,> 100 µM,6.25 µg/mL,25 µg/mL,12.5 µg/mL,3.12 µg/mL,12.5 µg/mL,25 µg/mL
O=C(Oc1cc2cc(c1)Oc1cc(c([N+](=O)[O-])cc1[N+](=O)[O-])Oc1cc(OC(=O)c3cccc4ccccc34)cc(c1)Oc1cc(c([N+](=O)[O-])cc1[N+](=O)[O-])O2)c1cccc2ccccc12,12.5 µg/mL,16.3 µM,32.6 µM,> 100 µM,12.5 µg/mL,1.75 µg/mL,12.5 µg/mL,50 µg/mL,1.75 µg/mL,25 µg/mL
COC1=CC(=O)C[C@@H](C)[C@]12Oc1c(Cl)c(OC)cc(OC)c1C2=O [GRISEOFULVIN],10 µg/mL,–,–,–,–,–,10 µg/mL,–,–,50 µg/mL
NYSTATIN,10 µg/mL,–,–,–,–,–,10 µg/mL,–,–,10 µg/mL
GENTAMICIN,–,–,–,–,0.05 µg/mL,0.005 µg/mL,–,0.025 µg/mL,1 µg/mL,–
O=C(COc1cc2cc(c1)Oc1cc(c([N+](=O)[O-])cc1[N+](=O)[O-])Oc1cc(OCC(=O)Nc3nc4ccccc4s3)cc(c1)Oc1cc(c([N+](=O)[O-])cc1[N+](=O)[O-])O2)Nc1nc2ccccc2s1,50 µg/mL,10.3 µM,19.4 µM,> 100 µM,50 µg/mL,6.25 µg/mL,12.5 µg/mL,1 µg/mL,6.25 µg/mL,50 µg/mL
O=C(COc1cc2cc(c1)Oc1cc(c([N+](=O)[O-])cc1[N+](=O)[O-])Oc1cc(OCC(=O)Nc3nc4ccc([N+](=O)[O-])cc4s3)cc(c1)Oc1cc(c([N+](=O)[O-])cc1[N+](=O)[O-])O2)Nc1nc2ccc([N+](=O)[O-])cc2s1,42.9 µg/mL,41.3 µM,93.2 µM,> 100 µM,1.75 µg/mL,12.5 µg/mL,50 µg/mL,1.75 µg/mL,50 µg/mL,50 µg/mL
CC1(C)S[C@@H]2[C@H](NC(=O)[C@H](N)c3ccccc3)C(=O)N2[C@H]1C(=O)O [AMPICILLIN],–,–,–,–,10 µg/mL,1 µg/mL,–,2 µg/mL,–,–
CCn1cc(C(=O)O)c(=O)c2cc(F)c(N3CCNCC3)cc21 [NORFLOXACIN],–,–,–,–,1 µg/mL,1 µg/mL,–,1 µg/mL,1 µg/mL,–
O=[N+]([O-])c1cc([N+](=O)[O-])c2cc1Oc1cc(cc(OS(=O)(=O)c3cccc4ccccc34)c1)Oc1cc(c([N+](=O)[O-])cc1[N+](=O)[O-])Oc1cc(cc(OS(=O)(=O)c3cccc4ccccc34)c1)O2,50 µg/mL,31.3 µM,61.3 µM,> 100 µM,12.5 µg/mL,3.12 µg/mL,50 µg/mL,6.25 µg/mL,3.12 µg/mL,12.5 µg/mL
O=C(COc1cc2cc(c1)Oc1cc(c([N+](=O)[O-])cc1[N+](=O)[O-])Oc1cc(OCC(=O)Nc3cccc4c3C(=O)c3ccccc3C4=O)cc(c1)Oc1cc(c([N+](=O)[O-])cc1[N+](=O)[O-])O2)Nc1cccc2c1C(=O)c1ccccc1C2=O,50 µg/mL,53.4 µM,> 100 µM,> 100 µM,1 µg/mL,25 µg/mL,25 µg/mL,50 µg/mL,1.75 µg/mL,50 µg/mL
O=[N+]([O-])c1cc([N+](=O)[O-])c2cc1Oc1cc(cc(OS(=O)(=O)c3cccc4cccnc34)c1)Oc1cc(c([N+](=O)[O-])cc1[N+](=O)[O-])Oc1cc(cc(OS(=O)(=O)c3cccc4cccnc34)c1)O2,50 µg/mL,12.8 µM,25.6 µM,> 100 µM,12.5 µg/mL,6.25 µg/mL,25 µg/mL,3.12 µg/mL,12.5 µg/mL,25 µg/mL
COc1cccc2c1C(=O)c1c(O)c3c(c(O)c1C2=O)C[C@@](O)(C(=O)CO)C[C@@H]3O[C@H]1C[C@H](N)[C@H](O)[C@H](C)O1 [DOXORUBICIN HYDROCHLORIDE],–,< 0.1 µM,< 0.1 µM,95.5 µM,–,–,–,–,–,–
O=C(COc1cc2cc(c1)Oc1cc(c([N+](=O)[O-])cc1[N+](=O)[O-])Oc1cc(OCC(=O)Nc3nc4ccc(Cl)cc4s3)cc(c1)Oc1cc(c([N+](=O)[O-])cc1[N+](=O)[O-])O2)Nc1nc2ccc(Cl)cc2s1,50 µg/mL,13.7 µM,28.6 µM,> 100 µM,3.12 µg/mL,6.25 µg/mL,50 µg/mL,12.5 µg/mL,6.25 µg/mL,50 µg/mL
O=C(COc1cc2cc(c1)Oc1cc(c([N+](=O)[O-])cc1[N+](=O)[O-])Oc1cc(OCC(=O)Nc3nc4ccc(Br)cc4s3)cc(c1)Oc1cc(c([N+](=O)[O-])cc1[N+](=O)[O-])O2)Nc1nc2ccc(Br)cc2s1,25 µg/mL,2.1 µM,4.6 µM,> 100 µM,25 µg/mL,1 µg/mL,25 µg/mL,1 µg/mL,1.75 µg/mL,25 µg/mL
O=C(COc1cc2cc(c1)Oc1cc(c([N+](=O)[O-])cc1[N+](=O)[O-])Oc1cc(OCC(=O)N(c3ccccc3)c3ccccc3)cc(c1)Oc1cc(c([N+](=O)[O-])cc1[N+](=O)[O-])O2)N(c1ccccc1)c1ccccc1,25 µg/mL,38.3 µM,82.2 µM,> 100 µM,3.12 µg/mL,1.75 µg/mL,12.5 µg/mL,1.75 µg/mL,1 µg/mL,12.5 µg/mL

# Source: ChEMBL document CHEMBL3751666, “Efficiently functionalized oxacalix[4]arenes: Synthesis, characterization and exploration of their biological profile as novel HDAC inhibitors” (2016)
